Key:
CTLL-2 cells = test: CTLL-2 cell proliferation reactivation assay (CyQUANT); type: cell-based; conditions: for IC50: CTLL-2 cells with rhPD-L1 chimera, 72 h, n = 3
Excerpt: Next, we investigated the capacity of the compound to reactivate proliferation of CTLL-2 cells. These cytotoxic T cells expressing […] are maintained in a dormant state when they are cultivated in the presence of recombinant hPD-L1; their proliferation, monitored by flow-cytometry (using the CyQuant cell proliferation test), is reactivated when they are exposed to a PD-L1 inhibitor, thus mimicking a reactivation of the immune system. […] The replacement of the Me substituent of compound 2 with an ethyl group abolished the capacity of the product to promote CTLL-2 cell proliferation. The same result was obtained with a compound bearing a […] chain instead of the ethyl chain (not shown).
The CyQUANT cell proliferation kit (Thermofischer, Waltham, MA, USA) was used to evaluate the growth of the CTLL-2 cell line (ATCC). Cells were prepared by growing them in the presence or absence of rhPD-L1 chimera (R&D) plus the test compound, and then transferring them to microplates for assay according to manufacturer’s instructions (Molecular Probes C35011). A cell-based standard curve was first established, with the amount of fluorescence correlated to the quantity of cells in the wells. Cells were incubated with increasing concentrations of compounds, over a period 72 h. Positive (nivolumab) and negative (no rhPD-L1 Fc chimera) controls were performed to calibrate the assay. IC50 were determined for the restoration of proliferation by global curve fitting with Graphpad. Experiments were repeated three times and IC50 values averaged.

[1] = EPR spin-trapping assay with DMPO under Fenton conditions; conditions: for DMPO kr / DMPO kr/ka: DMPO 1 mM; for DMPO kr: methanol, reaction with •OCH3; for DMPO kr/ka: ka (DMPO-•OH) = 4.3 × 10^9 M^−1 s^−1
Description: (§1) We used two electron paramagnetic resonance (EPR)-based assays to compare the antioxidant potency of the compounds. The first assay was a free radical scavenging test with 1,1-diphenyl-2-picrylhydrazyl (DPPH) to monitor the decay in the EPR signal intensity in the presence of the diamagnetic hydrazine compound. The intensity of the typical EPR spectrum of DPPH (100 μM) decreases in the presence of increasing concentration of the test compounds (Figure 6). The attenuation of the EPR signal reflects the antioxidant effect, clearly visible with each compound. From the EPR data, the concentration of the compound required to reduce the signal intensity by 50% (EC50) was calculated. […] The second assay relies on the use of the spin-trapping agent DMPO (5,5-dimethyl-1-pyrroline N-oxide) to monitor the formation of an oxygen centered radical generated under Fenton conditions (hydrogen peroxide plus ferrous ions). We used methanol as a solvent, thus leading to a monitoring of the methoxy radical DMPO/^•OCH3 characterized with a typical six-line EPR signal with hyperfine coupling constants aN = 13.9 G and aH = 8.3 G (Figure 7). The decrease in the EPR signal was evaluated with the different compounds to compare their relative antioxidant capacity. […] For each compound, we calculated the reaction constants (kr in Table 2). The antioxidant capacity of compounds 4–5 was reduced compared to edaravone (1). Nevertheless, compound 5 maintains a significant activity, with a kr value reduced by a factor 2.6 compared to the reference product 1. […] The value obtained with EDA is consistent with that given in the literature and thus validates our measurements.
(§2) An X-band Brüker Elexsys E500 spectrometer operating at 9.86 GHz was used to perform CW-EPR experiments. CW-EPR spectra were recorded at room temperature with a microwave power of 5.024–10.02 mW and a modulation amplitude of 1–2 G that considers non-saturation conditions. The free radical scavenging molecule DPPH (1,1-diphenyl-2-picrylhydrazyl) and spin trap agent DMPO (5,5-dimethyl-1-pyrroline N-oxide) were used to monitor the antioxidant activity of the test compounds. The solution mixture (50 μL) was filled into a glass capillary, placed in 4 mm quartz EPR tubes for analysis. The inhibition of DPPH (%) was calculated with the equation: I (%) = ((I0 − I)/I0) × 100 where I0 is the area of the EPR spectrum of DPPH (control sample), and I the area of the DPPH spectrum with antioxidant compound. The rate constant for the reaction of antioxidant compounds with ^•OCH3 is expressed by the equation: 1/Ra = 1/Rf + ((Kr [AH])/(ka [DMPO] Rf)) where Rf, and Ra indicate EPR signal area (double integration of EPR signal) of ^•OCH3, DMPO/^•OCH3, respectively. ka and [DMPO] are constants, and a plot of 1/Ra vs. [AH] (concentration of antioxidant compound) gives a straight line with 1/Rf as an intercept and kr/(ka[DMPO]Rf) as the slope. The rate constant for the reaction of ^•OCH3 with antioxidant compounds (kr) is expressed by the equation: kr = (ka [DMPO] × slope)/− intercept.

[2] = EPR DPPH free radical scavenging assay; conditions: DPPH 100 µM, compound 2 to 90 µM
Description: as §1, §2

[3] = Aldehyde (4-HNE) reactivity by HRMS; conditions: 180 min, 37 °C, [M–H]-
Excerpt: Edaravone (1) is a reactive molecule known to form adducts with different aromatic aldehydes, such as formylpterin and vanillin [15, 19]. In aqueous solution, it forms mono- and bis-adducts with the aldehyde compound vanillin [20]. […] Here we have compared the reactivity of compounds 1–5 using another aldehyde with a major biological relevance, 4-hydroxynonenal. 4-HNE is a product of lipid peroxidation implicated in the pathogenesis of diverse human diseases, such as diabetes, aging-related diseases and cancers. […] Edaravone is known to react covalently with 4-HNE to form mono-, bis-, and tris-adducts in solution [25]. We used high-resolution mass spectrometry (HRMS) to monitor the formation of the covalent adducts generated with the phenyl-pyrazolones and 4-HNE after 3 h of incubation at physiological temperature in an aqueous buffer. The formation of mono-, bis-, and tris-adducts was detected unambiguously with each compound (Figure 8). A reaction scheme is represented in Figure 9 for compound 5. In each case, the pyrazolone compound (nucleophile) easily reacted with 4-HNE to generate the different species, each characterized by their corresponding mass (m/z), the ring-double-bond value (rdb, valence values of elements in structure), the signal intensity and the correspondence with the theoretical m/z value (Δppm) (Table 3). The different species can be easily identified, with the isotopic pattern characteristic for the presence of chlorine and carbon atoms (chlorine and carbon cluster isotopes). In all cases, the species formed were identified without any ambiguity from their relative abundances. […] These values were in accordance with the theorical abundances, calculated from the exactive software for the isotopic pattern of the ions from m/z = 489.13606 to m/z = 494.13323.
High resolution mass spectrometry (HRMS) and spectra were recorded with an Exactive Plus mass spectrometer (Thermo Fisher Scientific, San Jose, CA, USA) equipped with a heated electrospray ionisation probe (HESI -II). Each mass analyzer was calibrated with Pierce®ESI positive and negative ion calibration solutions each week (Thermo Fisher Scientific). Optimization of voltages, gas values, and temperatures applied for ion transfer and ionization was performed in negative mode. The tuning parameters were optimized separately with reaction mixture obtained from reaction of nucleophile with the aldehyde. This was completed by infusing first individual solutions of each nucleophile or the aldehyde at 10 pmol/µL. Each reaction mixture was performed during 180 min at 37 °C with the compound at 0.5 mM in phosphate buffer 10 mM, pH = 7.4 and then the reaction mixture was diluted 1/400 in MeOH. The solution was injected with a syringe at a flow rate of 10 µL/min. […]

[4] = molecular target: T1, recombinant human PD-L1 protein (rhPD-L1) (Homo sapiens, UniProt Q9NZQ7); parameters: method as in printed; conditions: background statement of the introduction, ref not given; cited from earlier work
T1 construct: purchased R&D Systems 9049-B7-100
T1 sequence (Q9NZQ7 19-239 limits assumed): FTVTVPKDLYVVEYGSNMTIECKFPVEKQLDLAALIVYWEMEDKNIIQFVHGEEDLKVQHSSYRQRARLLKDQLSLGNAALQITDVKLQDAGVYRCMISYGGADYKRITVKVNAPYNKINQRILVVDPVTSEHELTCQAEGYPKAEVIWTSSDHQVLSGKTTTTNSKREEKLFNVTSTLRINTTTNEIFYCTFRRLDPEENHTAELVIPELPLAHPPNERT

[5] = molecular target: T2, PD-L1 dimers (His-labeled PD-L1 titrated with unlabeled His-PD-L1) (Homo sapiens, UniProt Q9NZQ7); test: MST dimerization binding assay; conditions: test compound 1 µM, labeled His-PD-L1 10 nM
T2 construct: purchased Biotechne 9049-B7-100
T2 sequence (Q9NZQ7 19-239 limits assumed): as above
Excerpt: These observations led us to prioritize compound 5 as a hit compound owing to its potent capacity to bind to PD-L1, to interrupt PD-1/PD-L1 signaling and to reactivate CTLL-2 cell proliferation. Moreover, we selected this compound for an additional reason: its unique capacity to promote dimerization of rhPD-L1. This later property was evidenced using a specific dimerization binding assay which monitors the formation of PD-L1 dimers from a His-labeled PD-L1 protein by MST. The use of a PD-L1 protein with a polyhistidine (6xHis) tag at the C-terminus allows the non-covalent, stable, and selective labeling of the protein with a red fluorescent dye, to facilitate the formation of PD-L1 dimers. […] There is no doubt that this compound is a robust inhibitor of the PD-1/PD-L1 checkpoint.
A labeled His-PD-L1 protein was titrated against an unlabeled His-PD-L1 protein with or without compounds of interest. The test compound (1 µM) and the His-labeled PD-L1 protein (10 nM) are kept constant whereas the unlabeled His-PD-L1 (1 µM) varies with a serial 1:1 ratio of 16 gradients. MST was performed using the same instrument as mentioned above. His-PD-L1 protein (Biotechne # 9049-B7-100) was diluted to 200 nM in commercial PBS-T buffer and was labeled as indicated above. The RED-tris-NTA dye was diluted in PBS-T to 100 nM. The mix was incubated at room temperature in the dark for 30 min. Capillaries were filled individually.

[6] = molecular target: T1, recombinant human PD-L1 protein (rhPD-L1); test: Microscale thermophoresis (MST) binding assay; conditions: rhPD-L1, n = 3, 1:1 binding model
[7] = molecular target: T3, interaction between PD-L1 and PD-1 (Homo sapiens, UniProt Q9NZQ7); test: FRET reporter assay, SHP-2-CFP / PD-1-YFP in CHO-K1 cells activated by rhPD-L1; type: cell-based; conditions: CHO-K1 cells co-transfected PD1-SHP2, PD-L1 10 µM, n = 5, read-out: Bioactivity (IC50), block of PD-L1/PD-1 interaction in cells
T3 construct: expressed in transfected cells; host or cells: CHO-K1
T3 sequence (Q9NZQ7 19-239 limits assumed): as above

[8] = Metabolic stability in mouse liver microsomes; type: in vitro ADME
Excerpt: The metabolic stability of the compounds in mice liver microsomes was investigated using liver microsomes from male mice (BD Gentest™) with propranolol as a positive control, as described previously. Mouse plasma CD-1 was used to investigate the plasma stability of the molecules, with enalapril as a positive control, as described recently.

Solubility = type: physicochemical

COc1nc(OCc2cccc(-c3ccccc3)c2C)ccc1CNCCNC(C)=O [BMS-202, reference compound]
IC50 (CTLL-2 cells): 0.053 ± 0.017 µM

CC1=NN(c2ccccc2)C(=O)C1 [Compound 1, edaravone, reference compound]
DMPO kr [1]: 25.9 10^10 M^−1 s^−1
DMPO kr/ka [1]: 60
EC50 [2]: 35.8 µM
HRMS intensity of remaining 4-HNE [3]: 1.63 × 10^5
Binding to PD-L1 [4]: does not bind to PD-L1

CC1=NN(c2ccc(Cl)cc2Cl)C(=O)C1 [Compound 2]
IC50 (CTLL-2 cells; Mus musculus, CTLL-2, 72 h): 0.053 ± 0.011 µM
DMPO kr [1]: 19.3 10^10 M^−1 s^−1
DMPO kr/ka [1]: 45
EC50 [2]: 36.5 µM

COc1ccccc1C1=NN(c2ccc(Cl)cc2Cl)C(=O)C1 [Compound 3, 1-(2,4-Dichlorophenyl)-3-(2-methoxyphenyl)-1H-pyrazol-5(4H)-one]
IC50 (CTLL-2 cells): 0.079 ± 0.007 µM
IC50 (CTLL-2 cells; Mus musculus, CTLL-2, 72 h): 0.07 µM
Promotion of PD-L1 dimerization [5]: inactive
EC50 [2]: 34 µM
HRMS intensity of remaining 4-HNE [3]: 1.92 × 10^5
melting point: 188 °C

CCC1=NN(c2ccc(Cl)cc2Cl)C(=O)C1 [Compound 4, 1-(2,4-dichlorophenyl)-3-ethyl-1H-pyrazol-5(4H)-one]
Kd [6]: 0.019 ± 0.003 µM
IC50 [7]: 0.012 ± 0.005 µM
Reactivation of CTLL-2 cell proliferation (CTLL-2 cells; CTLL-2 cells with rhPD-L1): inactive
Promotion of PD-L1 dimerization [5]: inactive
DMPO kr [1]: 4.40 10^10 M^−1 s^−1
DMPO kr/ka [1]: 10
EC50 [2]: 40.9 µM
HRMS intensity of remaining 4-HNE [3]: 1.01 × 10^5
melting point: 160 °C

Oc1cc(-c2ccccc2F)nn1-c1ccc(Cl)cc1Cl [Compound 5, 1-(2,4-Dichlorophenyl)-3-(2-fluorophenyl)-1H-pyrazol-5-ol]
Kd [6]: 0.027 ± 0.004 µM
IC50 [7]: 0.074 ± 0.007 µM
IC50 (CTLL-2 cells; Mus musculus, CTLL-2, 72 h): 0.043 ± 0.009 µM
Promotion of PD-L1 dimerization [5]: promoted the dimerization of PD-L1 in a dose-dependent manner
DMPO kr [1]: 9.74 10^10 M^−1 s^−1
DMPO kr/ka [1]: 23
kr value reduced by a factor compared to reference product 1 ([1]; DMPO assay): 2.6
EC50 [2]: 38.2 µM
HRMS intensity of remaining 4-HNE [3]: 2.11 × 10^5
Microsomal stability compared to compound 3 [8]: slightly improved
Solubility compared to compound 3 (Solubility): slightly improved
melting point: 229 °C

atezolizumab
IC50 [7]: 0.047 ± 0.011 µM

From PMC10144346, “Novel PD-L1-Targeted Phenyl-Pyrazolone Derivatives with Antioxidant Properties” (Molecules, 2023)
